# Experimental data taken from patent US11707440B2 (priority 2017, dated 2023).
# Tests used:
# [1] = test system: female Sprague-Dawley rats, PCG/RSC of the brain; assay: Single dose neurotoxicity study, intranasal instillation; conditions: single dose, 72 mg
# Method: Esketamine HCl was instilled intranasally at doses of 0 (vehicle), 36, 54 or 72 mg (expressed as esketamine base) to female rats on a single day. The dose levels were obtained by 2, 3 or 4 subsequent intranasal instillations, respectively, into both nostrils at a volume of 50 μL per nostril. At each instillation, the second nostril was dosed immediately after the first nostril. The interval between subsequent instillations into both nostrils was 5 minutes.
# The vehicle control group received 4 subsequent intranasal instillations of the vehicle into both nostrils (50 μL per nostril) with 5-minute intervals.
# The injection volume was 5 mL/kg.
# The vehicle- and the 36 and 54 mg-dosed groups consisted of 24 animals per group, while the 72 mg-dosed and positive control groups involved 30 animals per group. Four satellite animals were added to the esketamine HCl-dosed groups of main study animals for toxicokinetic (TK) purposes. In these animals the plasma exposure to esketamine was measured on the day of dosing at various time points up to and including 24 hours after the first instillation.
# Prior to the perfusion, rats were anesthetized with isoflurane. After injection of 0.1 ml heparin, the blood of the rat was flushed out with a physiological saline solution by intraarterial insertion of a needle in the abdominal aorta. Thereafter the rat was perfused with glutaraldehyde 3% in potassium phosphate 0.09M and 1.4% sucrose. Due to logistic constraints at maximum 30 animals could undergo the whole-body perfusion procedure on a given day. Therefore, a staggered start of treatment was applied to all 5 groups of main study animals. Consequently, subgroups of 4 main study animals of the vehicle- and 36 and 54 mg-dosed groups, and 5 main study animals of the 72 mg-dosed and positive control groups, were dosed on 6 consecutive days, respectively.
# The vehicle control, positive control, and esketamine HCl-dosed animals were sacrificed at either 48 hours (i.e., the first 12 or 15 rats per group) or 96 hours after the dose administration time (i.e., the last 12 or 15 rats per group). The brain tissue of the vehicle control-, positive control- and esketamine HCl-treated rats were processed at the same time and handled in the same way in batches of 4 or 5 animals per group.
# Furthermore, clinical observations were recorded for the esketamine HCl-dosed rats on the day of dosing at 0 till 5 minutes, 15 and 30 minutes, and at 1, 2, 4, 6 hours post-dose, at the end of the working day and at 24 hours after the last instillation in the single dose study and on the first day of dosing, after one week and towards the end of the dosing period in the repeated dose study. Body weight and body weight gain were measured daily. Food consumption was measured weekly in the repeated dose study.
# On the day of terminal kill, a complete physical examination was performed on the rats in fasted condition and body weight was recorded. The surviving animals were anaesthetized by inhalation of an isoflurane (IsoFlo® Zoetis, Belgium)/oxygen mixture and killed by exsanguination via the carotid artery. […] All terminally killed rats or those killed pre-terminally were perfused with 4% paraformaldehyde in the single dose study and with glutaraldehyde 3% in potassium phosphate buffer 0.09 M with 1.4% sucrose in the repeated dose study.
# Brain tissue was sampled and processed routinely. The trimmed and embedded tissue was sectioned and stained with hematoxylin-eosin (HE). Histoprocessing and staining were carried out in three batches of 4 animals per group (each batch thus containing 4 animals from vehicle control-, positive control- and the three esketamine HCl-treated groups). In the single dose study duplicate brain sections were stained with Fluoro-Jade (FJ).
# All tissues showing gross abnormalities were examined macroscopically.
# [2] = test system: patients with treatment-resistant depression (TRD); assay: Response, remission and relapse rates (MADRS), Example 7; type: in vivo, human; conditions: Period 2 endpoint
# Source text: A similar trend for remission (defined as MADRS total score≤10) was observed across groups. […] Response and remission rates at the end of the open-label and follow-up phases are presented by type of treatment in the double-blind and open-label phases in Table 161.
# [3] = test system: patients with treatment-resistant depression (TRD); assay: CGI-S, Example 7; type: in vivo, human
# Method: Overall illness severity was assessed on the Clinical Global Impression of Severity (CGI-S) scale (Guy, “ECDEU Assessment Manual for Psychopharmacology-Revised (DHEW Publ No ADM 76-338)”, Rockville, Md.: U.S. Department of Health, Education, and Welfare, Public Health Service, Alcohol, Drug Abuse, and Mental Health Administration, NIMH Psychopharmacology Research Branch, Division of Extramural Research Programs; 1976, pp 218-222). Participants assessed their severity of anxiety on the Generalized Anxiety Disorder 7-item (GADS-7) Scale (See, Tables 157 and 15). See, Spitzer, “A brief measure for assessing generalized anxiety disorder—the GAD-7”, Arch. Intern. Med., 2006, 166(10):1092-1097.
# subjects with TRD = conditions: human, in vivo, other: intranasal
# Method: The Clinician Administered Dissociative States Scale (CADSS) was measured prior to the start of each dose, at 40 minutes, and 1.5 hours postdose.
# [4] = test system: subjects with MDD at imminent risk for suicide; assay: Beck Hopelessness Scale (BHS), […]2001; type: in vivo, human; conditions: for BHS total score change, Diff. of LS Means (SE) minus placebo: ANCOVA LOCF
# Source text: The BHS is a self-reported measure to assess one's level of negative expectations or pessimism regarding the future. It consists of 20 true-false items that examine the respondent's attitude over the past week by either endorsing a pessimistic statement or denying an optimistic statement. For every statement, each response is assigned a score of 0 or 1. The total BHS score is a sum of item responses and ranges from 0 to 20, with a higher score representing a higher level of hopelessness.
# [5] = Day 1(DB): 4H, LOCF, ITT analysis set
# [6] = End Point(DB), LOCF, ITT analysis set
smiles,measurement,setting,value
"CN[C@]1(c2ccccc2Cl)CCCCC1=O [esketamine, (S)-2-(2-chlorophenyl)-2-(methylamino)cyclohexanone]",AUC-based safety margin compared with the maximum 84 mg clinical dose,[1],~86 fold
same,Cmax-based safety margin compared with the maximum 84 mg clinical dose,[1],approximately 60 fold
same,Proportion of responders (≥50% improvement from baseline in MADRS total score),[2]; 56 mg,36.4%
same,Proportion of responders (≥50% improvement from baseline in MADRS total score),[2]; 84 mg,50.0%
same,CGI-S Median Change,"[3]; 28 mg, Period 1, first day to day 8",−1.0
same,CGI-S Median,"[3]; 28 mg, Period 1 end point",4.0
same,CGI-S Median Change,"[3]; 28 mg, Period 2, first day to day 8 of period",−1.0
same,CGI-S Median,"[3]; 28 mg, Period 2 end point",4.0
same,CGI-S Median Change,"[3]; 56 mg, Period 1, first day to day 8",−1.0
same,CGI-S Median,"[3]; 56 mg, Period 1 end point",4.0
same,CGI-S Median Change,"[3]; 56 mg, Period 2, first day to day 8 of period",−1.0
same,CGI-S Median,"[3]; 56 mg, Period 2 endpoint",5.0
same,CGI-S Median Change,"[3]; 84 mg, Period 1, first day to day 8",−0.5
same,CGI-S Median,"[3]; 84 mg, Period 1 end point",4.0
same,CGI-S Median Change,"[3]; 84 mg, Period 2, first day to day 8 of period",−1.0
same,CGI-S Median,"[3]; 84 mg, Period 2 endpoint",4.0
same,Time to resolution of dissociative and perceptual change symptoms (CADSS),subjects with TRD,≤ 1.5 hours postdose
CN[C@]1(c2ccccc2Cl)CCCCC1=O [Esketamine 84 mg],"BHS total score, Median (Range)","[4]; Baseline(DB), predose Day 1, ITT analysis set",17.0 (9; 20)
same,"BHS total score change, Diff. of LS Means (SE) minus placebo",[4]; Day 1(DB): 4H,−1.5 (1.47)
same,"BHS total score change from baseline, Mean (SD)",[4]; [5],−4.1 (5.63)
same,"BHS total score change from baseline, Median (Range)",[4]; [5],−2.0 (−16; 2)
same,"BHS total score, Median (Range)",[4]; [5],14.0 (0; 20)
same,"BHS total score change, Diff. of LS Means (SE) minus placebo",[4]; End Point(DB),−2.3 (1.66)
same,"BHS total score change from baseline, Mean (SD)",[4]; [6],−10.3 (5.51)
same,"BHS total score change from baseline, Median (Range)",[4]; [6],−11.0 (−19; 0)
same,"BHS total score, Mean (SD)",[4]; [6],6.2 (5.96)
same,"BHS total score, Median (Range)",[4]; [6],4.0 (0; 20)
